ChEMBL document CHEMBL3870324, “Asnovolins A-G, Spiromeroterpenoids Isolated from the Fungus Aspergillus novofumigatus, and Suppression of Fibronectin Expression by Asnovolin E” (J Nat Prod, 2016)

How the values were obtained:
[1] = species on record: Homo sapiens; assay: Inhibition of fibronectin expression in HNDF after 24 hrs by Western blot analysis; format: functional
[2] = species on record: Homo sapiens; assay: Inhibition of fibronectin expression in HNDF at 25 uM after 24 hrs by Western blot analysis relative to control; format: functional

C=C(C)[C@@H]1CC[C@H](C)[C@@]2(C[C@@]3(C)C(=C(C)C(=O)[C@@H](C(=O)OC)[C@@H]3C)O2)[C@@]1(C)CCC(=O)OC
inhibition [1]: Dose-dependent effect | inhibition [2]: 87%
